Assay results reported in US20080161344A1, “Melanin Concentrating Hormone Receptor Ligands: Substituted Tetrahydroisoquinoline Analogues” (priority 2004, published 2008).

Target: MCH receptor (MCH1) (Macaca fascicularis, UniProt A0A2K5VT41)
Assay: Melanin concentrating hormone receptor binding assay (125I-Tyr MCH competition, membranes of transfected HEK293 cells)
Design: species or system Cynomolgus macaque
Settings: not given
Procedure: This Example illustrates a standard assay of melanin concentrating hormone receptor binding that may be used to determine the binding affinity of compounds for the MCH receptor.
Cynomolgus macaque hypothalamus MCH1 cDNA is prepared and cloned into PCDNA3.1 (INVITROGEN Corp., Carlsbad, Calif.), and HEK293 cells (American Type Culture Collection, Manassas, Va.) are stably transfected with the MCH1 expression vector as described in PCT International Application publication number WO/03/059289, which published on Jul. 24, 2003. The disclosure of WO 03/059289 at page 52 directed to the preparation and storage of the transfected HEK293 cells is hereby incorporated by reference.
At the time of assay, pellets are thawed by addition of wash buffer (25 mM Hepes with 1.0 mM CaCl2, 5.0 mM MgCl2, 120 mM NaCl, pH 7.4) and homogenized for 30 seconds using a BRINKMAN POLYTRON, setting 5. Cells are centrifuged for 10 minutes at 48,000×g. The supernatant is discarded and the pellet is resuspended in fresh wash buffer, and homogenized again. An aliquot of this membrane homogenate is used to determine protein concentration via the Bradford method (BIO-RAD Protein Assay Kit, #500-0001, BIO-RAD, Hercules, Calif.). By this measure, a 1-liter culture of cells typically yields 50-75 mg of total membrane protein. The homogenate is centrifuged as before and resuspended to a protein concentration of 333 μg/mL in binding buffer (Wash buffer+0.1% BSA and 1.0 μM final phosphoramidon) for an assay volume of 50 μg membrane protein/150 μl binding buffer. Phosphoramidon was from SIGMA BIOCHEMICALS, St. Louis, Mo. (cat# R-7385).
Competition binding assays are performed at room temperature in Falcon 96 well round bottom polypropylene plates. Each assay well contains 150 μL of MCH receptor-containing membranes described above, 50 μL ^125I-Tyr MCH, 50 μL binding buffer, and 2 μL test compound in DMSO. ^125I-Tyr MCH (specific activity=2200 Ci/mmol) is purchased from NEN (Boston, Mass.) and is diluted in binding buffer to provide a final assay concentration of 30 pM.
Non-specific binding is defined as the binding measured in the presence of 1 μM unlabeled MCH. MCH is purchased from BACHEM U.S.A., King of Prussia, Pa. (cat #H-1482). Assay wells used to determine MCH binding contain 150 μL of MCH receptor containing membranes, 50 μL ^125I-Tyr MCH, 25 μL binding buffer and 25 μL binding buffer.
Assay plates are incubated for 1 hour at room temperature. Membranes are harvested onto WALLAC™ glass fiber filters (PERKIN-ELMER, Gaithersburg, Md.) which were pre-soaked with 1.0% PEI (polyethyleneimine) for 2 hours prior to use. Filters are allowed to dry overnight, and then counted in a WALLAC 1205 BETA PLATE counter after addition of WALLAC BETA SCINT™ scintillation fluid.
For saturation binding, the concentration of ^125I-Tyr MCH is varied from 7 to 1,000 pM. Typically, 11 concentration points are collected per saturation binding curve. Equilibrium binding parameters are determined by fitting the allosteric Hill equation to the measured values with the aid of the computer program FitP™ (BIOSOFT, Ferguson, Mo.).

Chain of MCH receptor (MCH1) (A0A2K5VT41 entry or part of it): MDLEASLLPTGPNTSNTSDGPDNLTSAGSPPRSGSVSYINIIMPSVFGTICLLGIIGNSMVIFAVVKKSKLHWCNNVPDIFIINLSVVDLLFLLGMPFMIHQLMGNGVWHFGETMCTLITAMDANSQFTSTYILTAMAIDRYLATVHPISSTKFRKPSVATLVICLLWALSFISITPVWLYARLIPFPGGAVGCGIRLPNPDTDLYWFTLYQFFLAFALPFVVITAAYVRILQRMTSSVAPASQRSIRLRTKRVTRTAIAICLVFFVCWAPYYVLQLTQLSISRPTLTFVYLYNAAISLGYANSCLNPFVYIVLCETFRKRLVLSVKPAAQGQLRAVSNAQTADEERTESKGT

Question: With COc1cc2c(cc1OC)CN(Cc1cccc(Oc3ccc(C(C)(C)C)cc3)c1)CC2 [Compound 1, 2-[3-(4-tert-Butyl-phenoxy)-benzyl]-6,7-dimethoxy-1,2,3,4-tetrahydroisoquinoline] as the compound, how does the Ki read?
Answer: < 1 µM

Question: Which Ki does the source give for COc1cc2c(cc1OC)CN(Cc1ccnc(Oc3ccc(C(C)(C)C)cc3)c1)CC2 [Compound 5, 2-[2-(4-tert-Butyl-phenoxy)-pyridin-4-ylmethyl]-6,7-dimethoxy-1,2,3,4-tetrahydroisoquinoline] here?
Answer: < 1 µM

Question: With COc1cc2c(cc1OC)CN(Cc1cccc(Oc3ccc(C)cc3)c1)CC2 [Compound 3, 6,7-dimethoxy-2-(3-p-tolyloxy-benzyl)-1,2,3,4-tetrahydroisoquinoline] as the compound, how does the Ki read?
Answer: < 1 µM

Same assay, conditions: MCH receptor binding assay of Example 2; class symbol; read-out: Ki

Question: For COc1cc2c(cc1OC)CN(Cc1ccnc(Oc3ccc(C(C)C)cc3)c1)CC2 [Compound 19, 2-[2-(4-Isopropyl-phenoxy)-pyridin-4-ylmethyl]-6,7-dimethoxy-1,2,3,4-tetrahydroisoquinoline], which Ki is on record?
Answer: < 1 µM

Question: For COc1cc2c(cc1OC)CN(Cc1cccc(Cc3ccccc3)c1)CC2 [Compound 10, 2-(3-Benzyl-benzyl)-6,7-dimethoxy-1,2,3,4-tetrahydroisoquinoline], which Ki is on record?
Answer: < 1 µM

Question: COc1cc2c(cc1OC)CN(Cc1cccc(Oc3ccccc3)c1)CC2 [Compound 43, 6,7-Dimethoxy-2-(3-phenoxy-benzyl)-1,2,3,4-tetrahydroisoquinoline] was tested. Which Ki did it give?
Answer: < 1 µM

Question: CCOc1cc2c(cc1OCC)CN(Cc1cccc(Oc3ccc(C(C)(C)C)cc3)c1)CC2 [Compound 26, 2-[3-(4-tert-Butyl-phenoxy)-benzyl]-6,7-diethoxy-1,2,3,4-tetrahydroisoquinoline] was tested. Which Ki did it give?
Answer: < 1 µM

Question: How did the Ki turn out when CCOc1ccc(Oc2cccc(CN3CCc4cc(OC)c(OC)cc4C3)c2)cc1 [Compound 22, 2-[3-(4-Ethoxy-phenoxy)-benzyl]-6,7-dimethoxy-1,2,3,4-tetrahydroisoquinoline] was run?
Answer: < 1 µM

Question: How did the Ki turn out when CCOc1cc2c(cc1OC)CCN(Cc1cccc(Oc3ccc(C(C)(C)C)cc3)c1)C2 [Compound 31, 2-[3-(4-tert-Butyl-phenoxy)-benzyl]-7-ethoxy-6-methoxy-1,2,3,4-tetrahydroisoquinoline] was run?
Answer: < 1 µM

Question: Which Ki does the source give for COc1cc2c(cc1OC)CN(Cc1cccc(Oc3ccc(OC(F)(F)F)cc3)c1)CC2 [Compound 49, 6,7-Dimethoxy-2-[3-(4-trifluoromethoxy-phenoxy)-benzyl]-1,2,3,4-tetrahydroisoquinoline] here?
Answer: < 1 µM

Question: CCOc1cc2c(cc1OC)CN(Cc1cccc(Oc3ccc(C(C)(C)C)cc3)c1)CC2 [Compound 29, 2-[3-(4-tert-Butyl-phenoxy)-benzyl]-6-ethoxy-7-methoxy-1,2,3,4-tetrahydroisoquinoline] was tested. Which Ki did it give?
Answer: < 1 µM

Question: COc1cc2c(cc1OC)CN(Cc1cccc(Oc3ccc(C(C)C)cc3)c1)CC2 [Compound 23, 2-[3-(4-Isopropyl-phenoxy)-benzyl]-6,7-dimethoxy-1,2,3,4-tetrahydroisoquinoline] was tested. Which Ki did it give?
Answer: < 1 µM

Question: CCOc1cc2c(cc1OC)CCN(Cc1ccnc(Oc3ccc(C(C)C)cc3)c1)C2 [Compound 53, 7-Ethoxy-2-[2-(4-isopropyl-phenoxy)-pyridin-4-ylmethyl]-6-methoxy-1,2,3,4-tetrahydroisoquinoline] was tested. Which Ki did it give?
Answer: < 1 µM

Question: Which Ki does the source give for CC(C)(C)c1ccc(Oc2cccc(CN3CCc4cc5c(cc4C3)OCO5)c2)cc1 [Compound 52, 6-[3-(4-tert-Butyl-phenoxy)-benzyl]-5,6,7,8-tetrahydro-[1,3]dioxolo[4,5-g]isoquinoline] here?
Answer: < 1 µM

Question: COc1cc2c(cc1OC)CN(Cc1cccc(Oc3ccc(C#N)cc3)c1)CC2 [Compound 42, 4-[3-(6,7-Dimethoxy-3,4-dihydro-1H-isoquinolin-2-ylmethyl)-phenoxy]-benzonitrile] was tested. Which Ki did it give?
Answer: < 1 µM

Question: Which Ki does the source give for COc1ccc(Oc2cccc(CN3CCc4cc(OC)c(OC)cc4C3)c2)cc1 [Compound 47, 6,7-Dimethoxy-2-[3-(4-methoxy-phenoxy)-benzyl]-1,2,3,4-tetrahydroisoquinoline] here?
Answer: < 1 µM

Question: For COc1cc2c(cc1OC)CN(Cc1cccc(Oc3ccc(C(C)(C)C)cc3)n1)CC2 [Compound 34, 2-[6-(4-tert-Butyl-phenoxy)-pyridin-2-ylmethyl]-6,7-dimethoxy-1,2,3,4-tetrahydroisoquinoline], which Ki is on record?
Answer: < 1 µM

Question: How did the Ki turn out when COc1cc2c(cc1OC)CN(Cc1cccc(Oc3ccc(Cl)cc3)c1)CC2 [Compound 21, 2-[3-(4-Chloro-phenoxy)-benzyl]-6,7-dimethoxy-1,2,3,4-tetrahydroisoquinoline] was run?
Answer: < 1 µM

Question: Which Ki does the source give for COc1cc2c(cc1OC)CN(Cc1cccc(Oc3ccc(C(F)(F)F)cc3)c1)CC2 [Compound 50, 6,7-Dimethoxy-2-[3-(4-trifluoromethyl-phenoxy)-benzyl]-1,2,3,4-tetrahydroisoquinoline] here?
Answer: < 1 µM
